The term melting point denotes the temperature of the solid-liquid transition.

For the compound `CC(C)(C)Nc1c(-c2ccccc2)[nH]c2c(C(N)=O)cnn12` [Example 1, 3-(Tert-butylamino)-2-phenyl-1H-imidazo[1,2-b]pyrazole-7-carboxamide], the melting point lay in the range of 246 to 248 °C.

Compound `CC(C)(C)CC(C)(C)Nc1c(-c2ccccc2)[nH]c2c(C(N)=O)cnn12` [Example 2, 2-Phenyl-3-((2,4,4-trimethylpentan-2-yl)amino)-1H-imidazo[1,2-b]pyrazole-7-carbox-amide] showed a melting point of 154 to 156 °C.

With `COC(=O)CNc1c(-c2ccccc2)[nH]c2c(C(N)=O)cnn12` [Example 3, Methyl 2-((7-carbamoyl-2-phenyl-1H-imidazo[1,2-b]pyrazol-3-yl)amino)acetate], the melting point was 209 to 210 °C.

The compound `NC(=O)c1cnn2c(NC3CCCCC3)c(-c3ccccc3)[nH]c12` [Example 4, 3-(Cyclohexylamino)-2-phenyl-1H-imidazo[1,2-b]pyrazole-7-carboxamide] returned a melting point of 240 to 241 °C.

`COc1ccc(Nc2c(-c3ccccc3)[nH]c3c(C(N)=O)cnn23)cc1` [Example 5, 3-((4-Methoxyphenyl)amino)-2-phenyl-1H-imidazo[1,2-b]pyrazole-7-carboxamide]: the melting point is 229 to 231 °C.

Turning to `COC(=O)CNc1c(-c2c(OC)cc(OC)cc2OC)[nH]c2c(C(N)=O)cnn12` [Example 9, Methyl 2-((7-carbamoyl-2-(2,4,6-trimethoxyphenyl)-1H-imidazo[1,2-b]pyrazol-3-yl)amino)acetate], the melting point is 226 to 227 °C.

The compound `CC(C)(C)Nc1c(-c2ccc(F)c(F)c2)[nH]c2c(C(N)=O)cnn12` [Example 13, 3-(Tert-butylamino)-2-(3,4-difluorophenyl)-1H-imidazo[1,2-b]pyrazole-7-carboxamide] showed a melting point of 256 to 258 °C.

`CC(C)(C)CC(C)(C)Nc1c(-c2cccnc2)[nH]c2c(C(N)=O)cnn12` [Example 14, 2-(Pyridin-3-yl)-3-((2,4,4-trimethylpentan-2-yl)amino)-1H-imidazo[1,2-b]pyrazole-7-carboxamide] gave a melting point of 226 to 228 °C.

Take `CCCCCCCc1[nH]c2c(C(N)=O)cnn2c1NC(C)(C)C` [Example 17, 3-(Tert-butylamino)-2-heptyl-1H-imidazo[1,2-b]pyrazole-7-carboxamide]: the melting point is 203 to 204 °C.

`CC(C)(C)CC(C)(C)Nc1c(C(C)(C)C)[nH]c2c(C(=O)NC(C)(C)C)cnn12` [Example 30, N,2-Di-tert-butyl-3-((2,4,4-trimethylpentan-2-yl)amino)-1H-imidazo[1,2-b]pyrazole-7-carboxamide] came in with a melting point of 177 to 178 °C.

For the compound `CC(C)(C)CC(C)(C)Nc1c(C(C)(C)C)[nH]c2c(C(=O)NC3CCCC3)cnn12` [Example 32, 2-(Tert-butyl)-N-cyclopentyl-3-((2,4,4-trimethylpentan-2-yl)amino)-1H-imidazo[1,2-b]pyrazole-7-carboxamide], the melting point lay in the range of 182 to 183 °C.

The compound `Cc1cc(C)cc(NC(=O)c2cnn3c(NC(C)(C)CC(C)(C)C)c(C(C)(C)C)[nH]c23)c1` [Example 41, 2-(Tert-butyl)-N-(3,5-dimethylphenyl)-3-((2,4,4-trimethylpentan-2-yl)amino)-1H-imidazo[1,2-b]pyrazole-7-carboxamide] had a melting point of 180 to 181 °C.

`CC(C)c1ccc(NC(=O)c2cnn3c(NC(C)(C)CC(C)(C)C)c(C(C)(C)C)[nH]c23)cc1` [Example 42, 2-(Tert-butyl)-N-(4-isopropylphenyl)-3-((2,4,4-trimethylpentan-2-yl)amino)-1H-imidazo[1,2-b]pyrazole-7-carboxamide]: the melting point was 155 to 156 °C.

Compound `COc1ccc(NC(=O)c2cnn3c(NC(C)(C)CC(C)(C)C)c(C(C)(C)C)[nH]c23)c(OC)c1` [Example 44, 2-(Tert-butyl)-N-(2,4-dimethoxyphenyl)-3-((2,4,4-trimethylpentan-2-yl)amino)-1H-imidazo[1,2-b]pyrazole-7-carboxamide] showed a melting point of 127 °C.

`CC(C)(C)CC(C)(C)Nc1c(C(C)(C)C)[nH]c2c(C(=O)Nc3ccccc3C(F)(F)F)cnn12` [Example 45, 2-(Tert-butyl)-N-(2-(trifluoromethyl)phenyl)-3-((2,4,4-trimethylpentan-2-yl)amino)-1H-imidazo[1,2-b]pyrazole-7-carboxamide] displayed a melting point of 106 °C.

In the case of `CC(C)(C)CC(C)(C)Nc1c(C(C)(C)C)[nH]c2c(C(=O)NCc3ccc(F)cc3)cnn12` [Example 71, 2-(Tert-butyl)-N-(4-fluorobenzyl)-3-((2,4,4-trimethylpentan-2-yl)amino)-1H-imidazo[1,2-b]pyrazole-7-carboxamide], the melting point was 163 to 164 °C.

For the compound `CC(C)(C)CC(C)(C)Nc1c(C(C)(C)C)[nH]c2c(C(=O)Nc3ccc(F)cn3)cnn12` [Example 72, 2-(Tert-butyl)-N-(5-fluoropyridin-2-yl)-3-((2,4,4-trimethylpentan-2-yl)amino)-1H-imidazo[1,2-b]pyrazole-7-carboxamide], the melting point was 140 °C.

Regarding `CC(C)(C)CC(C)(C)Nc1c(C(C)(C)C)[nH]c2c(C(=O)Nc3ccc(F)nc3)cnn12` [Example 73, 2-(Tert-butyl)-N-(6-fluoropyridin-3-yl)-3-((2,4,4-trimethylpentan-2-yl)amino)-1H-imidazo[1,2-b]pyrazole-7-carboxamide], the melting point was in the range of 177 to 178 °C.

Regarding `Cc1nn2c(NC(C)(C)CC(C)(C)C)c(C(C)(C)C)[nH]c2c1C(=O)Nc1ccc(F)cc1` [Example 74, 2-(Tert-butyl)-N-(4-fluorophenyl)-6-methyl-3-((2,4,4-trimethylpentan-2-yl)amino)-1H-imidazo[1,2-b]pyrazole-7-carboxamide], the melting point amounted to 179 °C.

These data come from US20220064167A1, “IMIDAZO-PYRAZOLE CARBOXAMIDE DERIVATIVES AS ANTICANCER AGENTS AND THE SYNTHESIS THEREOF” (AVIDIN KFT., priority 2018, published 2022).
